Results on 6 compounds are retold here after US20030186943A1, “Substituted gamma-phenyl-delta-lactams and uses related thereto” (Inflazyme Pharmaceuticals Ltd., priority 1998, published 2003).

For experiment [1], the system named is cAMP Phosphodiesterase 4 from Human U937 Cells. As to the kind of experiment: Inhibition of cAMP phosphodiesterase 4 from human U937 cells. It counts as biochemical. The procedure: PDE's 1 through 4 utilize cAMP as substrate while PDE 5 uses cGMP. […] PDE's for the various assays were partially purified from the following cells/tissues; PDE 1 (bovine heart), PDE 2 (human platelets), PDE 3 (human platelets), PDE 4 (human promonocytic U937 cells) and PDE 5 (human platelets).
Sonicated cell extracts were then centrifuged at 70,000 g for 30 minutes and supernatants removed. Sucrose was added to a final concentration of 0.25 M, aliquoted and stored at −80° C.
PDE reactions were performed for 30 minutes at 37° C. in 20 μL volumes in 1 μM [^3H] cAMP (Amersham website http://www.apbiotech.com), 0.5 U/mL 5′ nucleotidase (Sigma), 50 mM Tris Cl, 10 mM MgCl pH 7.5. U937 extract was added such that less than 10% of substrate was consumed. Test compound or vehicle was added to the desired concentration. […] Reactions were performed in duplicate. Reactions were terminated by addition of 200 μL Dowex 1-8400 Cl^− anion exchange resin in a ratio of 1 resin: 2 methanol: 1H2O. Samples were mixed by inversion and then allowed to settle for 2-3 hours.

The next experiment concerns the target T1, PDE 2 (human platelets) (Homo sapiens, UniProt O00408).
T1 construct: PDE's for the various assays were partially purified from the following cells/tissues; tissue MDS Panlabs (assay service); host or cells: human platelets
As to the kind of experiment: PDE isozyme specificity: PDE 2. The experiment is classed as biochemical. The following applies: for inhibition at 100 µM: PDE2, X marks this range. An excerpt:
Compound 12 was screened for activity against 5 of the major classes of mammalian cyclic nucleotide phosphodiesterase (termed PDE 1 through 5). PDE's 1 through 4 utilize cAMP as substrate while PDE 5 uses cGMP. The broad specificity PDE inhibitor 3-isobutyl-1-methylxanthine (IBMX; Sigma; Catalogue No. 17018)) was used as a positive control in all assays. PDE's for the various assays were partially purified from the following cells/tissues; PDE 1 (bovine heart), PDE 2 (human platelets), PDE 3 (human platelets), PDE 4 (human promonocytic U937 cells) and PDE 5 (human platelets).
Test compounds (at 100 μM) were screened for activity against PDE 1,2 and 5, using standard biochemical methods performed at MDS Panlabs (Bothell, Wash., USA). The broad specificity PDE inhibitor 3-isobutyl-1-methylxanthine (IBMX) was used as a positive control in all assays. PDE's for the various assays were partially purified from the following cells/tissues; PDE 1 (bovine heart), PDE 2 (human platelets) and PDE 5 (human platelets). For purposes of comparison, the effects on PDE3 (human platelets) and PDE4 (human U937 monocytic cell line) described above are presented again in Table 12.

For experiment [2], the system named is K562 chronic myelogenous leukemia cells. As to the kind of experiment: Anti-proliferative activity in K562 cells (3H-thymidine uptake). It counts as cell-based, human. The following applies: for IC50: Homo sapiens, K562, 48 hours, 3H-thymidine, X marks this range, read-out: IC50 range (μM) >50. On the procedure: 90 μL K562 cells (human chronic myelogenous leukemia cells) were seeded into sterile 96-well assay plates at a density of 1×10^5 cells/mL in RPMI 1640 supplemented with 10% FBS/2 mM L-glutamine. Samples to be tested were prepared in a sterile 96-well assay plate at 10×the final concentration desired. All sample dilutions contained equal amounts of DMSO to compensate for the % DMSO in the highest sample concentration used. Nine concentrations of test compound were examined for effects on growth up to a maximal concentration of 100 μM. 10 μL of the samples and controls (DMSO/normal growth control) were added to the aliquoted cells. The cells were incubated at 37° C./5% CO2 for 48 hours. Following 48 hour incubation, 20 μL of 3H-thymidine was added to each well for a final concentration of 1 μCi/mL. The cells were then incubated at 37° C./5% CO2 for 4 to 6 hours. Following 4-6 hour thymidine pulse, plates were wrapped in plastic and frozen in a −20° C. frost-free freezer overnight. Cells were harvested and ^3H-thymidine counts determined. In order to distinguish between cytotoxicity and cytostatic activity, growth curves were prepared where the average CPM value of the seeding density of cells was plotted on the same curve as the average CPM value for the maximum proliferation attained after 48 hours (DMSO growth control cells). The cells were diluted 1:2 for a concentration range of 7.8×10^3 cells/mL to 2×10^6 cells/mL. 90 μL of each cell dilution was seeded in sterile 96-well assay plated and allowed to equilibrate for approximately 4 hours at 37° C./5% CO2 prior to ^3H-thymidine pulse. The data in Table 15 was obtained as described above, and more specifically, K562 cells were seeded into 96-well plates at 1×10^5 cells/mL in RPMI 1640 supplemented with 10% FBS/2 mM L-glutamine. Various concentrations of test compound or vehicle (DMSO) was added and the cells were incubated at 37° C./5 CO2 for 48 hours. The cells were then pulsed at 37° C./5% CO2 for 4 to 6 hours with 1 μCi/mL ^3H-thymidine. Radioactivity incorporated into DNA was determined after harvesting onto glass fiber filters and scintillation counting.

Experiment [3] has as its system tail skin allograft rejection (C57BL/6 donor, BALB/c recipient mice). As to the kind of experiment: Murine tail skin allograft transplantation model. It counts as in vivo, mouse. The note with it: 10 mg/kg i.p. twice daily; for Average graft survival: from one day prior to and for 15 days after transplantation; for # grafts surviving beyond 16 days p.t.: five mice per group. On the procedure: Tail skin from donor H-2 b C57BL/6 mice was transplanted onto recipient female H-2^d BALB/c mice (Lagodzinski, Z. et al., Immunology 71:148-150 (1990)). Five mice were included per group. […] Test compounds and CsA were administered twice daily intraperitoneally at a dose of 10 mg/kg beginning at one day prior to transplantation and for 15 days after transplantation, including the day of transplantation. Mice were monitored and scored daily over 15 days post transplantation for graft rejection.
Skin allograft rejection is primarily mediated by T lymphocytes with little evidence for a major role of antibodies under most circumstances. Skin allograft rejection requires the activation of helper and cytotoxic effector T cell populations. Graft rejection was assessed by monitoring allograft necrosis. Because tail skin is visibly distinct from the surrounding trunk skin of the mouse, the course of rejection can be easily monitored. Fully intact grafts were scored as 100%. Complete graft rejection was defined as >90% graft necrosis. Acute graft rejection generally proceeds via a series of visually obvious events beginning with swelling and erythema of the graft. These events are followed by graft desiccation and scab formation over most or all of the graft, signaling the loss of the viable graft tissue. Scab formation is subsequently followed by shrinkage and scar formation.

Setting [4] is: read-out: % inhibition by 100 μM test compound 25-50.

Where two headings read alike, the source gives them in different places.

T1 sequence (O00408 whole entry): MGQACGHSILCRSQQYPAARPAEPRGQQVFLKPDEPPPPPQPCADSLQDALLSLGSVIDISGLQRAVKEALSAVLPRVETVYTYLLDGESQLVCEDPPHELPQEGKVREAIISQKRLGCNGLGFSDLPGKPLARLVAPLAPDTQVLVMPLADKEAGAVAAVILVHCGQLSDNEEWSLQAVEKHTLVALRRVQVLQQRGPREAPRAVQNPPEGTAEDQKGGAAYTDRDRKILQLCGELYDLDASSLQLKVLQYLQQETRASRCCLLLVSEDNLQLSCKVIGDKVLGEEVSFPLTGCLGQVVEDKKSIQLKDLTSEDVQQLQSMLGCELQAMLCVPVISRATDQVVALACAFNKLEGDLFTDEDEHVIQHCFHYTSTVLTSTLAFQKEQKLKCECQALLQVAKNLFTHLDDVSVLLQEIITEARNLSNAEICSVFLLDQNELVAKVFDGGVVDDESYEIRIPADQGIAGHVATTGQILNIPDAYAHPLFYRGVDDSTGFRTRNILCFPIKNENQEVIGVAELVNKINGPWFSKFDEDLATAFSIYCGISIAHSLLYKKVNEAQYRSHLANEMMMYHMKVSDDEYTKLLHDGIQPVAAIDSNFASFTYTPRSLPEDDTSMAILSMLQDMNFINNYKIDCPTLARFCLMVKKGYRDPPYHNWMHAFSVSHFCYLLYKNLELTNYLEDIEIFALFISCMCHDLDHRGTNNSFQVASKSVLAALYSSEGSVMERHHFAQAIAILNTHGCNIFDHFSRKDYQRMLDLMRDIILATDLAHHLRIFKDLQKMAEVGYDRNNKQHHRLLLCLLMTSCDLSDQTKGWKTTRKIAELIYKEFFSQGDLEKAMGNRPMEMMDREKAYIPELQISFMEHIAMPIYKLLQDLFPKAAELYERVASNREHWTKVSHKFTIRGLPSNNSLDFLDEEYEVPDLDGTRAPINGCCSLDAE

Consider `COc1cc(C[C@@H]2CC(c3ccc(OC)c(OC)c3)COC2=O)ccc1O` (mixture of isomers) [Compound 12], for which the IC50 (usually the concentration at which inhibition is half-maximal) in experiment [1] (human promonocytic U937 cells, read-out: IC50 PDE 4) is 5.9 µM. On PDE 2 (human platelets) (human platelets), the “inhibitory effect on PDE 2” value was “no significant inhibitory effects”. For the same compound, the inhibition (as a rule, the relative decrease from the control value, in per cent) at 100 µM at PDE 2 (human platelets) (setting [4]) lay in the range of 25 to 50%.
With `COc1cc(C[C@@H]2C[C@@H](c3ccc(OC)c(OC)c3)COC2=O)ccc1O` [Compound 30], the IC50 in experiment [1] (PDE4 from U937 extract, 1 μM [3H] cAMP, X marks this range, read-out: IC50 range (μM) 1-10) lay in the range of 1 to 10 µM.
With `COc1ccc([C@@H]2CCC(=O)OC2)cc1OC1CCCC1` [Compound 41], the inhibition at 100 µM on PDE 2 (human platelets) (setting [4]) fell in the range of 25 to 50%. In addition, the IC50 in experiment [2] is more than 50 µM. Moreover, in experiment [3], the “Average graft survival” value stood at 11.6 ± 4.6 days, the “Allograft survival rate (% at 9 days post-transplant)” value was 60% and the “# grafts surviving beyond 16 days p.t.” value was found to be 1.
In the case of `COc1cc(CC2C[C@@H](c3ccc(OC)c(OC4CCCC4)c3)COC2=O)ccc1O` (stereo partly shown) [Compound 43], the IC50 in experiment [1] (read-out: IC50 against the catalytic activity of PDE4) was determined as 0.26 µM. Besides, the inhibition at 100 µM at PDE 2 (human platelets) (read-out: % inhibition by 100 μM test compound 50-75) lay in the range of 50 to 75%.
On to `COc1ccc([C@H]2CNC(=O)C(Cc3ccc(OCc4ccccc4)c(OC)c3)C2)cc1OC` (stereo partly shown) [Compound 54], for which, in experiment [3], the “Average graft survival” value was 11.5 ± 3.3 days, the “Allograft survival rate (% at 9 days post-transplant)” value was found to be 75% and the “# grafts surviving beyond 16 days p.t.” value is 0.
As for `COc1ccc(C2CNC(=O)C2)cc1OC1CCCC1` (stereo not shown) [Rolipram, reference compound], in experiment [2], the “effect on proliferative ability / cell cycle of K-562 cells” value was “failed to have any effect” and the IC50 is more than 50 µM. Further, in experiment [3], the “Average graft survival” value was determined as 11.5 ± 3.7 days, the “Allograft survival rate (% at 9 days post-transplant)” value is recorded as 50% and the “# grafts surviving beyond 16 days p.t.” value is on record as 1.
